From BindingDB's records for doi:10.7270/Q2RJ4GVG (The Scripps Research Institute Molecular Screening Center, 2007)

These molecules were tested against T1, Isoform 2 of Nuclear receptor ROR-alpha (Alpha-2) (Homo sapiens, UniProt P35398) (assay: RORA ligand-binding domain transactivation agonists – cell-based, CHO-K1, Gal4-RORA LBD, luciferase luminescence, dose response (AID 681)). Settings: not given.
T1 sequence (P35398 whole entry): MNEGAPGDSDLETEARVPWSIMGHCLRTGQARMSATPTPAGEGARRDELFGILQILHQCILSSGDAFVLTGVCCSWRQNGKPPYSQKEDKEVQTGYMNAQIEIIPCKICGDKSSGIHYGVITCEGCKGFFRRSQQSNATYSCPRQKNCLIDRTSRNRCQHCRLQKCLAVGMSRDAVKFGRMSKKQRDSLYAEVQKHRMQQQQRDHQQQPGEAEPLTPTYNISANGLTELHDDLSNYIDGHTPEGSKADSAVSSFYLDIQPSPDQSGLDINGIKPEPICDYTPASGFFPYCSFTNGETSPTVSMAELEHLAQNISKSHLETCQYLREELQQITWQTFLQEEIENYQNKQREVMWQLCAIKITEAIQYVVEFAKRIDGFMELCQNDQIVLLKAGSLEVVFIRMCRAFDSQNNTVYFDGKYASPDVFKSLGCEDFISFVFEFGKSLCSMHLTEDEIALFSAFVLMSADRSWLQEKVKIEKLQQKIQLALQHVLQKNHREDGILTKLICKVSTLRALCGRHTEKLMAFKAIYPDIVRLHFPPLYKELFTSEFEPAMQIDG

EC50 [µM]	Structure (SMILES)
> 99	Cc1ccc2c(c1)c1c3n2CCCNC3CCC1 (stereo not given) [MLS000105423]
1.03	O=C(NC1CCCC1)c1cc(-c2cccs2)on1 [MLS000087238]
> 3.67	CCOc1ccc2nc(N3CCC(C(=O)N4CCN(c5ccccn5)CC4)CC3)sc2c1 [MLS000119552]
> 99	Oc1ccc(Cl)cc1C=Nc1nc2ccccc2[nH]1 [SMR000103225]
4	COc1ccc(C(=O)n2c(-c3ccco3)nc3ccccc32)cc1 [MLS000039368]
1.75	COc1ccccc1-c1nnc(NC(C)=O)s1 [MLS000041972]
5.11	Cc1nc(N=CN(C)C)sc1C(=O)Nc1ccccc1 [SMR000107046]
> 99	CCn1c(Cn2nnc(-c3ccccc3)n2)nnc1SCC(=O)Nc1ccc(C(C)=O)cc1 [MLS000068275]
2.03	COc1ccc2nc(NC(=O)CSc3nnc(-c4ccoc4C)n3C)sc2c1 [MLS000073639]
> 3.67	CCc1nnc2c3cnn(-c4ccccc4)c3ncn12 [MLS000080478]
> 0.136	CCOc1ccc2nc(NC(=O)c3cnccn3)sc2c1 [MLS000070707]
> 99	COc1ccc(C(O)P(=O)(O)CCc2ccccc2)cc1 (stereo not given) [MLS000038577]

Further lines, the molecule ahead of its results:

Structure (SMILES)	EC50 [µM]
COc1ccc(C(=O)Nc2cc(C)on2)cc1 [4-methoxy-N-(5-methyl-1,2-oxazol-3-yl)benzamide]	1.05
CCN(CCCNC(=O)c1cn(CC)c2ccc(S(=O)(=O)N(C)C)cc2c1=O)c1cccc(C)c1 [6-(dimethylsulfamoyl)-1-ethyl-N-[3-(N-ethyl-3-methyl-anilino)propyl]-4-keto-quinoline-3-carboxamide]	> 99
Cc1cc(N)c(NC2=CC(=O)CC(C)(C)C2)cc1C [3-(2-amino-4,5-dimethyl-anilino)-5,5-dimethyl-cyclohex-2-en-1-one]	> 99
O=C(Nc1ccc(N2CCCCC2)cc1)c1cncc(Br)c1 [5-bromanyl-N-(4-piperidin-1-ylphenyl)pyridine-3-carboxamide]	1.02
Cn1c(SCc2ccccc2F)nc2cccnc21 [2-(2-Fluoro-benzylsulfanyl)-3-methyl-3H-imidazo[4,5-b]pyridine]	1.98
CN1CCN(S(=O)(=O)c2ccc(Br)s2)CC1 [1-(5-bromanylthiophen-2-yl)sulfonyl-4-methyl-piperazine]	> 99
CCOc1cc(N2CCOCC2)c(OCC)cc1NS(=O)(=O)c1ccc(Cl)s1 [5-chloranyl-N-(2,5-diethoxy-4-morpholin-4-yl-phenyl)thiophene-2-sulfonamide]	2.64
O=C(c1ccco1)N1CCN(c2ncnc3c(-c4ccccc4)nsc23)CC1 [2-furanyl-[4-(3-phenyl-7-isothiazolo[4,5-d]pyrimidinyl)-1-piperazinyl]methanone]	4.34
CCn1c(-c2ccc(N(C)C)cc2)nc2ccccc21 [4-(1-ethyl-2-benzimidazolyl)-N,N-dimethylaniline]	0.823
Cc1cc(NCCOCCO)n2ncc(-c3ccc(Cl)cc3)c2n1 [2-[2-[[3-(4-chlorophenyl)-5-methyl-7-pyrazolo[1,5-a]pyrimidinyl]amino]ethoxy]ethanol]	0.536
Clc1ccccc1OCCn1cnc2ccccc21 [1-[2-(2-chloranylphenoxy)ethyl]benzimidazole]	> 1.22
O=C(Nc1nnc(C23CC4CC(CC(C4)C2)C3)s1)c1ccco1 [N-[5-(1-adamantyl)-1,3,4-thiadiazol-2-yl]furan-2-carboxamide]	0.317
CCCCOC(=O)C(C)Oc1ccc(=O)n(-c2ccccc2)n1 (stereo not given) [2-(6-keto-1-phenyl-pyridazin-3-yl)oxypropionic acid butyl ester]	> 99
COc1cccc(NC(=O)c2nnn(Cc3ccc(Br)cc3F)c2N)c1 [5-amino-1-(4-bromo-2-fluoro-benzyl)-N-(3-methoxyphenyl)triazole-4-carboxamide]	4.57
COc1cccc(-c2noc(-c3cccnc3)n2)c1 [3-(3-methoxyphenyl)-5-(3-pyridinyl)-1,2,4-oxadiazole]	0.853
Oc1coc2ccc(OCc3ccc(F)cc3)cc12 [5-(4-fluorobenzyl)oxycoumaran-3-one]	3.63

Structure (SMILES)	EC50 [µM]
CCOc1ccc(-c2nc(C#N)c(NC3CC3)o2)cc1 [5-(cyclopropylamino)-2-(4-ethoxyphenyl)-1,3-oxazole-4-carbonitrile]	0.624
Cn1cccc1C(=O)OCc1csc(-c2ccccc2)n1 [(2-phenyl-1,3-thiazol-4-yl)methyl 1-methylpyrrole-2-carboxylate]	0.221
COc1ccc(Nc2oc(-c3ccccc3Cl)nc2C#N)cc1 [2-(2-chlorophenyl)-5-(4-methoxyanilino)-1,3-oxazole-4-carbonitrile]	1.92
CCN(CC)C(=O)Oc1ccc2c(=O)c(-c3ccccc3)coc2c1 [(4-oxidanylidene-3-phenyl-chromen-7-yl) N,N-diethylcarbamate]	1.24
CCOc1ccc(C=CC(C)N=O)cc1 (stereo not given) [(Z)-4-(4-ethoxyphenyl)-3-buten-2-one oxime]	0.491
CC(=O)C(C)Oc1ccc2c3c(c(=O)oc2c1C)CCCC3 (stereo not given) [3-(2-keto-1-methyl-propoxy)-4-methyl-7,8,9,10-tetrahydrobenzo[c]chromen-6-one]	0.628
CCCCOc1ccc(-c2nnn(CC(=O)NCc3ccco3)n2)cc1 [2-[5-(4-Butoxy-phenyl)-tetrazol-2-yl]-N-furan-2-ylmethyl-acetamide]	5.07
O=C1N(CCCN2C(=O)C3(OCCO3)c3ccccc32)c2ccccc2C12OCCO2 [1'-[3-(2'-ketospiro[1,3-dioxolane-2,3'-indoline]-1'-yl)propyl]spiro[1,3-dioxolane-2,3'-indoline]-2'-one]	> 99
CCOC(=O)CSc1nc2cc(OCC)ccc2cc1C#N [(3-Cyano-7-ethoxy-quinolin-2-ylsulfanyl)-acetic acid ethyl ester]	1.83
COCCOC(=O)c1[nH]c2c(c1C)C(=O)CC(c1cc(OC)ccc1OC)C2 (stereo not given) [2-methoxyethyl 6-(2,5-dimethoxyphenyl)-3-methyl-4-oxo-1,5,6,7-tetrahydroindole-2-carboxylate]	> 3.67
CCOC(=O)c1ccccc1NC(=O)CSc1nnnn1C1CCCCC1 [2-[2-(1-Cyclohexyl-1H-tetrazol-5-ylsulfanyl)-acetylamino]-benzoic acid ethyl ester]	> 99
COc1ccccc1-c1nc(-c2ccncc2)no1 [4-[5-(2-Methoxy-phenyl)-[1,2,4]oxadiazol-3-yl]-pyridine]	3.44
O=C(c1ccc(-c2nnc(-c3ccccc3)o2)cc1)N1CCCCCC1 [1-azepanyl-[4-(5-phenyl-1,3,4-oxadiazol-2-yl)phenyl]methanone]	0.282
Nc1c(C(=O)NCCN2CCOCC2)c2nc3ccccc3nc2n1-c1ccc2c(c1)OCO2 [2-amino-1-(1,3-benzodioxol-5-yl)-N-(2-morpholin-4-ylethyl)pyrrolo[3,2-b]quinoxaline-3-carboxamide]	> 1.1
Cc1ccccc1Cn1ccc(NC(=O)c2onc(C)c2Cl)n1 [4-chloranyl-3-methyl-N-[1-[(2-methylphenyl)methyl]pyrazol-3-yl]-1,2-oxazole-5-carboxamide]	> 11
Cc1c(C(=O)OCC2CCCO2)[nH]c2c1C(=O)CC(c1ccco1)C2 (stereo not given) [oxolan-2-ylmethyl 6-(furan-2-yl)-3-methyl-4-oxo-1,5,6,7-tetrahydroindole-2-carboxylate]	1.67

Same assay, conditions: inactive by the depositor's call

Structure (SMILES)	EC50 [µM]
O=C(CSc1nc[nH]n1)Nc1nnc(-c2ccccc2)s1 [SMR000091719]	12.1
